Test results as given in patent US12551468B2, “Pharmaceutical composition for oral administration, for treatment of liver cancer” (ETNOVA Therapeutics Corp., priority 2019, dated 2026).

Key:
[1] = system: human liver cancer cell line HepG2; test: Comparison of survival rate in the liver cancer animal model (Example 4); type: in vivo, nude mouse; conditions: animal model test of Example 2; FIG. 5
Description: The human liver cancer cell line HepG2 was grown in Eagle's Minimum Essential Medium (EMEM) medium supplemented with 10% Fetal bovine serum (FBS) and 1% Antibiotic-Antimycotic. For liver cancer animal model production, stabilized cells were suspended in a 1:1 mixture (100 μL) of EMEM serum free media: Matrigel at a density of 5×10^6 cells/animal and then the suspension was transplanted subcutaneously to a flank of a nude mouse (5 weeks old, male). We have waited for the tumor formation for 3 weeks. When the tumor volume reached 200 mm^3, the body weight and the tumor size were measured and then the mice were randomly grouped. The mice were divided into 3 groups. Saline alone was administered intravenously to each group (Saline administered group (n=6, IV)). Cisplatin adjusted to pH 4 using NaCl aqueous solution, HCl aqueous solution, or NaOH aqueous solution was administered intravenously thereto (Cisplatin administered group (n=6, IV)). The compound according to the present disclosure (compound of Chemical Formula 1-1) dissolved in saline was forcibly administered orally thereto (administered group according to the present disclosure (n=6, P.O.)). The administration intervals and frequencies of administration to the groups were equal to each other. The administration was performed once a day and twice a week for 3 weeks. The dosage of Cisplatin (intravenous administration) was 5 mg/kg. […]

[2] = Comparative study of blood and histological toxicity (serum GOT/GPT activity, Sirius red staining of liver and kidney); type: in vivo; conditions: oral administration, end of Example 2 experiment; FIG. 3 and FIG. 4
Description: Toxicity was analyzed based on activity assay of GOT and GPT. A specific experimental method is as follows: GOT and GPT activity in serum was measured using a reagent kit (Asan Pharmaceutical) prepared according to a method of Reitman-Frankel. At an end of the experiment, blood was collected from an abdominal vena cava of the mice to which the compound was administered, and serum was separated therefrom. When a substrate solution was added to the serum which in turn was heated for a certain period of time, oxalacetate and glutamic acid were generated from the substrate solution for GOT measurement (aspartate, a-ketoglutarate mixture) due to the action of serum GOT, while under GPT action, pyruvate and glutamic acid were generated from the substrate solution for GPT measurement (Alanine, a-ketoglutarate mixture). Then, […] was added thereto such that 2,4-dinitrophenylhydrazone of oxaloacetate or pyruvate was produced, and NaOH was added thereto to develop color, and then absorbance was measured (505 nm). The activity of GOT and GPT in serum was calculated from a standard calibration curve as prepared separately.
At the end of the experiment, the blood of nude mice participating in the experiment was perfused and livers and kidneys were obtained. The tissues were fixed in 4% paraformaldehyde. […]

[3] = system: human liver cancer cell line HepG2; test: Anticancer effect test in liver cancer animal model using human liver cancer cell line (Example 2); type: in vivo, nude mouse; conditions: for relative size of tumor isolated 21 days after administration: compound 100 mg/kg P.O., Cisplatin 5 mg/kg IV, twice a week for 3 weeks, FIG. 2
Description: The human liver cancer cell line HepG2 was grown in Eagle's Minimum Essential Medium (EMEM) medium supplemented with 10% Fetal bovine serum (FBS) and 1% Antibiotic-Antimycotic. For liver cancer animal model production, stabilized cells were suspended in a 1:1 mixture (100 μL) of EMEM serum free media: Matrigel at a density of 5×10^6 cells/animal and then the suspension was transplanted subcutaneously to a flank of a nude mouse (5 weeks old, male). We have waited for the tumor formation for 3 weeks. When the tumor volume reached 200 mm^3, the body weight and the tumor size were measured and then the mice were randomly grouped. The mice were divided into 3 groups. Saline alone was administered intravenously to each group (Saline administered group (n=6, IV)). Cisplatin adjusted to pH 4 using NaCl aqueous solution, HCl aqueous solution, or NaOH aqueous solution was administered intravenously thereto (Cisplatin administered group (n=6, IV)). The compound according to the present disclosure (compound of Chemical Formula 1-1) dissolved in saline was forcibly administered orally thereto (administered group according to the present disclosure (n=6, P.O.)). The administration intervals and frequencies of administration to the groups were equal to each other. The administration was performed once a day and twice a week for 3 weeks. The dosage of Cisplatin (intravenous administration) was 5 mg/kg. The composition was orally administered at 100 mg/kg to the administered group according to the present disclosure.
The mice were anesthetized immediately prior to the administration, and then the body weight thereof was measured to observe the change in the body weight. The change in the tumor size over time was observed based on a following equation.
Average tumor volume calculation equation: V (mean tumor volume)=(A×B×B)/2
(In the above equation, A denotes a length of a long side and B denotes a length of a short side).
Further, on 21 days after the administration, a start time of tumor necrosis in the saline group was designated as an end point of the experiment. All nude mice participating in the experiment were sacrificed. Only the tumor was isolated from the flank thereof, and the relative size of the tumor was photographed. In FIG. 2, grayish-white dots mean that all tumors have disappeared and an individual has a tumor which may not be distinguished.

Human liver cancer cells = test: Comparative test of anticancer effect according to administration route change (Example 5); type: in vivo; conditions: 100 mg/kg P.O. vs 5 mg/kg I.V., twice a week for 4 weeks
Description: Human liver cancer cells were suspended in a 1:1 mixture (100 μL) of EMEM serum free media: Matrigel at a density of 2×10^6 cells/animal and the suspension was transplanted subcutaneously into the flank of nude mice (5 weeks old, male). We have waited for the tumor formation for 4 weeks. When the tumor volume reached 100 mm^3, the body weight and the tumor size were measured and then the mice were randomly grouped. The mice were divided into 4 groups. Saline alone was administered intravenously to each group (Saline administered group (n=6, I.V.)). Cisplatin adjusted to pH 4 using NaCl aqueous solution, HCl aqueous solution, or NaOH aqueous solution was administered intravenously thereto (Cisplatin administered group (n=5, I.V.)). […] The mice were anesthetized immediately prior to administration, and the body weight was measured to observe the change in the body weight. The changes in the body weight and the tumor size for 4 weeks were measured in the same manner as in Example 1 above, and the results are shown in FIG. 6. In the same manner as in Example 2, the tumor was separated and the relative size of the tumor was measured, and the photographed tissue is shown in FIG. 7.

[4] = 100 mg/kg P.O., once a day twice a week for 3 weeks, FIG. 1

SMILES	survival over time after drug administration [1]	toxicity in the liver and kidneys (serum GOT and GPT activity, tissue histology) [2]	change in body weight for 3 weeks [3, 4]	change in tumor size for 3 weeks [3, 4]	relative size of tumor isolated 21 days after administration [3]	toxicity based on the change in body weight, oral compared to intravenous administration (Human liver cancer cells; FIG. 6)	anticancer effect (tumor size, isolated tumor at 28 days, survival), oral compared to intravenous administration (Human liver cancer cells; FIGS. 6, 7, 8)
NCC(N)C(=O)Nc1ccc(-c2nc3ccccc3s2)cc1 (centres unmarked) [Chemical Formula 1-1]	the survival was higher	significantly lowered	no decrease in the body weight	the tumor disappeared or the size thereof was significantly reduced	tumors significantly decrease or completely disappear	the toxicity based on the change in body weight may be lowered	the anticancer effect may be significantly better
N.N.[Cl][Pt][Cl] [Cisplatin, cisplatin, reference compound]	–	–	–	–	tumor cells remain	–	–
